For assay [1], the target named is EGFR (human) (UniProt P00533). Particulars: mcf-10a.
Assay [2] addresses EGFR (mouse) (UniProt P00533). Particulars: baf3.

Each structure is given as a SMILES string. Where only a bound is given, the exact number is not on record here.

Sequence of EGFR (human) (P00533 whole entry, looked up): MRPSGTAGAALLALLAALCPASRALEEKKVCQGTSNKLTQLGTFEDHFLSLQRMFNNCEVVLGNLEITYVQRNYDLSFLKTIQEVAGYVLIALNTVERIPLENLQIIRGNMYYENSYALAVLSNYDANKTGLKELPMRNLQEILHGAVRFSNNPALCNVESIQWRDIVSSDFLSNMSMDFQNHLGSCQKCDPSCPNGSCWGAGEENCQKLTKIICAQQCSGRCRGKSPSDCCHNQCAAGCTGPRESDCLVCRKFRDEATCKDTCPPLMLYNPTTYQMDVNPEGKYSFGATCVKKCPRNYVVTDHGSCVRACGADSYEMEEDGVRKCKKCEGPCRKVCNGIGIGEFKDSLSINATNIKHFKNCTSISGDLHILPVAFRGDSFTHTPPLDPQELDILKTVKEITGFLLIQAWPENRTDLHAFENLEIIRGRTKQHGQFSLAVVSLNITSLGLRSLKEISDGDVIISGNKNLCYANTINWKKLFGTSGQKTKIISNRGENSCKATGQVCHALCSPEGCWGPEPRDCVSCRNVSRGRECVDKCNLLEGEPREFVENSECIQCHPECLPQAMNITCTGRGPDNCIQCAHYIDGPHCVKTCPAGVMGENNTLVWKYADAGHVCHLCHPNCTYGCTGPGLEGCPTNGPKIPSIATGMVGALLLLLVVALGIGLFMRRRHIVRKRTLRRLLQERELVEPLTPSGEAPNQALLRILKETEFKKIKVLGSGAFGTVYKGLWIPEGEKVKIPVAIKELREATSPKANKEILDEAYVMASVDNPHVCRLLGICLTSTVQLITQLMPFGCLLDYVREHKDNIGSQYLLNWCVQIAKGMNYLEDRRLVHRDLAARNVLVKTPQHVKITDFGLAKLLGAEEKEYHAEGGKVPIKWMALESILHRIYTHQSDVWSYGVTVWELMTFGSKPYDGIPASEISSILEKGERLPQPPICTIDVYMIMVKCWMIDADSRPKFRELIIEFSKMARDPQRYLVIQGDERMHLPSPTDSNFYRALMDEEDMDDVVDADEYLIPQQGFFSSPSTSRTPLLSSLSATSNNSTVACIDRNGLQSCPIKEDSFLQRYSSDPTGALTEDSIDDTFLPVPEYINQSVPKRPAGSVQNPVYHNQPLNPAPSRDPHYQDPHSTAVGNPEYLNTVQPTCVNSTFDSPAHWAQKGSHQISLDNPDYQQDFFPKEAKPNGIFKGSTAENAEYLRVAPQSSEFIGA

The compound `CCOc1cc2ncnc(NCc3ccc(F)cc3)c2cc1OCC` displayed an IC50 in assay [1] of 188 nM. Same read-out and setting: the same measure for `COc1cc2ncnc(Nc3ccc(F)cc3)c2cc1OC`: 612 nM. The same measure, in the same setting: next, `CCOc1cc2ncnc(Nc3ccccc3F)c2cc1OCC`: 141 nM; `COc1cc2ncnc(Nc3cc(F)cc(C(F)(F)F)c3)c2cc1OC`: 1630 nM. Regarding `O=C(O)c1cc(N(Cc2ccccc2O)Cc2cc(O)ccc2O)ccc1O`, the IC50 in assay [2] was found to be 12 nM. This counts as double-digit nanomolar. Regarding `CCOc1cc2ncnc(Nc3cc(F)cc(C(F)(F)F)c3)c2cc1OCC`, in assay [1], the IC50 was above 3000 nM. In assay [2], `O=C(O)c1ccc(-c2cc3c(Nc4cccc(Cl)c4)ncnc3[nH]2)cc1` gave an IC50 of 12 nM. Consider `COc1cc2ncnc(Nc3cccc(I)c3)c2cc1OC`, for which, in assay [1], the IC50 worked out at 585 nM. `COc1cc2ncnc(Nc3ccc(F)c(Cl)c3)c2cc1OCCN1CCOCC1` registered an IC50 in assay [2] of 20 nM. Take `CCOc1cc2ncnc(Nc3ccc(F)cc3)c2cc1OCC`: the IC50 in assay [1] was 622 nM. In other words, the sub-micromolar range.

In turn, `COc1cc2ncnc(Nc3ccccc3F)c2cc1OC` yielded an IC50 in assay [1] of 179 nM. Compared with the last compound, the IC50 is about 3.5-fold lower. Compound `CCOc1cc2ncnc(Nc3cccc(Br)c3)c2cc1OCC` registered an IC50 in assay [1] of 78 nM. Same read-out and setting: next, `CCOc1cc2ncnc(Nc3cccc(F)c3)c2cc1OCC`: 99 nM. On the same count and under the same terms, next, `CCOc1cc2ncnc(Nc3cccc(I)c3)c2cc1OCC`: 153 nM. Still for that read-out and setting: next, `CCOc1cc2ncnc(Nc3cccc(Cl)c3)c2cc1OCC`: 108 nM.

As a reminder, the IC50 is the concentration that inhibits the measured activity by half. Higher therefore signals lower potency.

For the origin of these results see the Kinase Knowledgebase extract (Sharma et al. 2016).
